# What was measured:
# [1] = tested on: zebrafish AHR1A, AHR1B, and AHR2; experiment: Antisense morpholino knockdown, any of the morpholinos; type: in vivo
# [2] = tested on: 21 AHR-related, cardiac stress-related and oxidative stress gene transcripts
# [3] = target: T1, AHR2 (Danio rerio, UniProt Q9YGV3); experiment: Antisense morpholino knockdown of AHR2 in Tg; type: in vivo, zebrafish; conditions: for expression in the skin and vasculature in AHR2 morphants: not shown
# T1 sequence (Q9YGV3 1-1027): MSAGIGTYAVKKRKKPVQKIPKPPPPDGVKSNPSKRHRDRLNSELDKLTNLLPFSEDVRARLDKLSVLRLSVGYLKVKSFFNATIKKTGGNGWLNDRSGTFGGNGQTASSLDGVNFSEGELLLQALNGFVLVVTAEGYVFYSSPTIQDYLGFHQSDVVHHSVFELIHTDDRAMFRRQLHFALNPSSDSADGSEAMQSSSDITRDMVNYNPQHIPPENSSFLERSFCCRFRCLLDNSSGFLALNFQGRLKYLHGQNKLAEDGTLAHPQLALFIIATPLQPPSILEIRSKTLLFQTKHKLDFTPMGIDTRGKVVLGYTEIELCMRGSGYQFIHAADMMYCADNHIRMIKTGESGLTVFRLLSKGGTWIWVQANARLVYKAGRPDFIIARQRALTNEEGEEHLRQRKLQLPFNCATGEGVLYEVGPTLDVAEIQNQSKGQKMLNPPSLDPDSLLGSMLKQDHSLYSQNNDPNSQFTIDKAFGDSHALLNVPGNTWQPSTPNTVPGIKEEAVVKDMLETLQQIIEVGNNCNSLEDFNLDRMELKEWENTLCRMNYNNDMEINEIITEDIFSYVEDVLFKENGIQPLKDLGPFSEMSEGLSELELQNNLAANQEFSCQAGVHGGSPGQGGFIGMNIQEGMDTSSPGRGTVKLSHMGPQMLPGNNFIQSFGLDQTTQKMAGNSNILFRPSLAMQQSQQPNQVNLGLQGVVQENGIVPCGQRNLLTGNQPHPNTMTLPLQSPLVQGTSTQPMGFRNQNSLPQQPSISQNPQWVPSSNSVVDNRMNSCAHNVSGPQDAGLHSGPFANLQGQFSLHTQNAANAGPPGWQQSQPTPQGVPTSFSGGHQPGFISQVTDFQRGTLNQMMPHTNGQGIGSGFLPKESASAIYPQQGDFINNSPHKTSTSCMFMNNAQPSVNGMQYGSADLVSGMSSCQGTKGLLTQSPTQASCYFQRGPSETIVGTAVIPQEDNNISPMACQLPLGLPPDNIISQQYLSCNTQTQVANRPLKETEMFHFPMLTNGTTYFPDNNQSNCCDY
# [4] = tested on: arg2; conditions: 48 hpf embryos; dependent on AHR2; ref Goodale et al., 2015; cited from earlier work
# [5] = tested on: cyp1a/GFP; conditions: ref Goodale et al., 2015; cited from earlier work
# [6] = tested on: zebrafish embryos; conditions: zebrafish embryos exposed 6 to 120 hpf; beyond the range of concentrations tested and beyond the range of accuracy of the EC50 model
# [7] = tested on: AHR1A; experiment: Antisense morpholino knockdown of AHR1A in Tg; type: in vivo, zebrafish; conditions: for cyp1a/GFP expression in the livers in AHR1A morphants: single concentration
# [8] = tested on: zebrafish embryos; experiment: animal or person; conditions: Danio rerio, read-out: EC50, calculated value beyond the range of concentrations tested, zebrafish embryos exposed 6 to 120 hpf; beyond the range of concentrations tested and beyond the range of accuracy of the EC50 model
# [9] = tested on: cyp1a; conditions: transgenic Japanese Medaka; ref Ng and Gong, 2013; cited from earlier work
structure (smiles),measurement,setting,value
"O=[N+]([O-])c1cc([N+](=O)[O-])c2ccc3cccc4ccc1c2c43 [1,3-dinitropyrene]",cyp1a/GFP expression in the yolk after injection with any of the morpholinos,[1],did not appear to decrease
same,"expression of nppb, increase","[2]; 3.56 µM, 120 hpf",23 fold
same,"expression of myl7, significant increase",[2]; 48 hpf,2 fold
same,number of differentially expressed genes,"[2]; 48 hpf, suite of 21 genes",4
"O=[N+]([O-])c1ccc2ccc3c([N+](=O)[O-])ccc4ccc1c2c43 [1,6-dinitropyrene]","cyp1a/GFP expression in the vasculature and/or skin (and neuromasts, for 7-nitrobenzo[k]fluoranthene) following knockdown of AHR2",[3],near-complete inhibition
same,toxicity in AHR2 morphants,[3],Decreased toxicity
same,expression in the skin and vasculature in AHR2 morphants,[3],reduced
same,"expression of cyp1a, cyp1b1, cyp1c1, and cyp1c2","[2]; 5 µM, at 48 and 120 hpf, vs DMSO control",Significantly increased expression
same,"expression of cyp1a1, increase","[2]; 48 hpf, compared to the DMSO exposed controls","1,963 fold"
same,expression of arg2,[2]; 120 hpf,significantly increased expression
"O=C1c2ccccc2-c2cccc3cccc1c23 [1,9-benz-10-anthrone]",arg2 expression,[4],significantly elevated
same,cyp1a/GFP expression in the syncytial layer of the yolk,[5],previously observed
O=[N+]([O-])c1ccc2cc3ccccc3cc2c1 [2-nitroanthracene],"EC50, calculated value beyond the range of concentrations tested",[6],beyond the tested range of concentrations
"O=[N+]([O-])c1c2c(cc3ccccc13)-c1ccc([N+](=O)[O-])c3cccc-2c13 [3,7-dinitrobenzo[k]fluoranthene]","cyp1a/GFP expression in the vasculature and/or skin (and neuromasts, for 7-nitrobenzo[k]fluoranthene) following knockdown of AHR2",[3],near-complete inhibition
same,expression in the skin and vasculature in AHR2 morphants,[3],reduced
O=[N+]([O-])c1ccc2c3c(cccc13)-c1ccccc1-2 [3-nitrofluoranthene],cyp1a/GFP expression in the yolk after injection with any of the morpholinos,[1],did not appear to decrease
O=[N+]([O-])c1ccc2c3c(cccc13)CC2 [5-nitroacenaphthalene],observed developmental toxicity in AHR1A morphants,[7],did not result in a substantial decrease
same,cyp1a/GFP expression in the livers in AHR1A morphants,[7],eliminated
same,expression of arg2,[2]; 120 hpf,significantly increased expression
O=[N+]([O-])c1c2ccccc2cc2c1ccc1ccccc12 [7-nitrobenz[a]anthracene],"cyp1a/GFP expression in the vasculature and/or skin (and neuromasts, for 7-nitrobenzo[k]fluoranthene) following knockdown of AHR2",[3],near-complete inhibition
same,"GFP expression in AHR2 morphants, vasculature",[3]; at both 48 and 120 hpf,Decreased GFP expression
same,"EC50, calculated value beyond the range of concentrations tested",[6],beyond the tested range of concentrations
same,EC50,[8],238 µM
O=[N+]([O-])c1c2c(cc3ccccc13)-c1cccc3cccc-2c13 [7-nitrobenzo[k]fluoranthene],cyp1a/GFP expression in the livers in AHR1A morphants,[7],eliminated
same,"cyp1a/GFP expression in the vasculature and/or skin (and neuromasts, for 7-nitrobenzo[k]fluoranthene) following knockdown of AHR2",[3],near-complete inhibition
same,"GFP expression in AHR2 morphants, skin and neuromasts",[3]; at both 48 and 120 hpf,Decreased GFP expression
same,"expression of cyp1a, cyp1b1, and cyp1c1","[2]; 50 µM, at 120 hpf, vs DMSO control",Significantly increased expression
same,expression of arg2,[2]; 120 hpf,significantly increased expression
O=[N+]([O-])c1cc2ccccc2c2ccccc12 [9-nitrophenanthrene],cyp1a/GFP expression in the livers in AHR1A morphants,[7],eliminated
c1ccc2c(c1)oc1ccccc12 [Dibenzofuran],"EC50, calculated value beyond the range of concentrations tested",[6],beyond the tested range of concentrations
same,EC50,[8],228 µM
Clc1cc2c(cc1Cl)Oc1cc(Cl)c(Cl)cc1O2 [TCDD],expression of cyp1a in the neuromasts,[9],observed previously

# Reference: paper PMC5414855 (Toxicological Sciences, 2017)
